The source of these data is paper PMC7067653 (Bioorganic & medicinal chemistry letters, 2020).

For test [1], the target named is human dopamine D1 receptor (Homo sapiens, UniProt P21728). The test is described as follows: Binding affinity at human dopamine D1 receptor. The settings on record: amide versus aniline precursor.
In test [2] the target is human dopamine D2 receptor (Homo sapiens, UniProt P14416). Nature of the test: Binding affinity at human dopamine D2 receptor. The settings on record: triplicate; na = not active (< 50% inhibition in a primary assay).
Chain of human dopamine D2 receptor (P14416 whole entry): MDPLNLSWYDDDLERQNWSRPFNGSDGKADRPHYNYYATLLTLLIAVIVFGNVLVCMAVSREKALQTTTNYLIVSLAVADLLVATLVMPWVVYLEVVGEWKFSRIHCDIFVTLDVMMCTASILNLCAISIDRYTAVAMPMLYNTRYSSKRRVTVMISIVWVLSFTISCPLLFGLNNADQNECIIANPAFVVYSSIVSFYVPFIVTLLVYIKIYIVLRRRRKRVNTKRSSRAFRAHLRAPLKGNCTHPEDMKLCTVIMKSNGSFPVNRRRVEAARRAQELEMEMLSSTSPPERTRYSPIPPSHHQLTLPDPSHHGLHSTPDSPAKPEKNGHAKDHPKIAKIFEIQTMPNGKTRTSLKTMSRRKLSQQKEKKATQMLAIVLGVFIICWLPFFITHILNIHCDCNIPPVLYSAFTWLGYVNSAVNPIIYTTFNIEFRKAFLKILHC
Test [3] concerns the target T1, human serotonin 5-HT1A receptor (Homo sapiens, UniProt P08908).
T1 sequence (P08908 1-422): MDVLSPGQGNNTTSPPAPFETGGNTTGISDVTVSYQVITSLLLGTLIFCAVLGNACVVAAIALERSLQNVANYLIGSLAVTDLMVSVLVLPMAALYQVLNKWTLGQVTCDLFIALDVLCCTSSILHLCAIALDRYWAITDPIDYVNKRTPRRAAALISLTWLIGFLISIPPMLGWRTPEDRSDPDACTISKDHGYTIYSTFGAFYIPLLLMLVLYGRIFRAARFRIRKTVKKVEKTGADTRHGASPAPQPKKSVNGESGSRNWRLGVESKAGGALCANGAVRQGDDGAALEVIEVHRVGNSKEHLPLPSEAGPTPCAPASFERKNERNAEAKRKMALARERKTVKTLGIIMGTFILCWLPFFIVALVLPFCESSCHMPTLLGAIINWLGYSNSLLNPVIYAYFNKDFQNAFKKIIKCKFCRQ
The test is described as follows: Binding affinity at human serotonin 5-HT1A receptor. The note with it: triplicate; na = not active (< 50% inhibition in a primary assay).

Chain of human dopamine D1 receptor (P21728 whole entry): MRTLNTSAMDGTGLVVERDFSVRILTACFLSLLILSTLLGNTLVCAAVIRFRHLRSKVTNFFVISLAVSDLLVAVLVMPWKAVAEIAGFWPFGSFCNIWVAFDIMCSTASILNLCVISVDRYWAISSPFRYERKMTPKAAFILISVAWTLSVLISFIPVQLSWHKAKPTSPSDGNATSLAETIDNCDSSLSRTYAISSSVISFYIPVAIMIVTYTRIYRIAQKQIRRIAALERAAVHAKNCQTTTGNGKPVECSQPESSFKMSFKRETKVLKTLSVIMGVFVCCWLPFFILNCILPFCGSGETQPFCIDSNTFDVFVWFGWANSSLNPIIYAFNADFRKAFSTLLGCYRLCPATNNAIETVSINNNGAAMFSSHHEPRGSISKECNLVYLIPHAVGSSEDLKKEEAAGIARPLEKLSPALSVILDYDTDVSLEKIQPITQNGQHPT

As for `C=CCOc1c(OC)cc2c3c1-c1cc(NC(C)=O)ccc1CC3N(C)CC2` (stereo not shown) [Compound 20b], in test [1], the “fold increase in D1 receptor affinity on N-acylation” value is listed as at most 12 fold. In addition, in test [2], the “Ki D2” value is “no D2 receptor affinity”.

As to `C#CCOc1c(OC)cc2c3c1-c1cc(NC(C)=O)ccc1CC3N(C)CC2` (stereo not shown) [Compound 20c], the “fold increase in D1 receptor affinity on N-acylation” value in test [1] is reported as at most 12 fold.

As to `C=CCOc1c(OC)cc2c3c1-c1cc(N)ccc1CC3N(C)CC2` (stereo not shown) [Compound 19d], in test [3], the “Ki 5-HT1A” value is “no affinity”.
